For one assay, the system named is Colo205. Briefly: Cell survival assay (SRB), Colo205. Particulars: Homo sapiens, COLO 205, 72 h. The format is cell-based. Here is the method: (§1) 2.2. Cell Survival Assay: Standard Pharmacological Test Procedure. […] Compounds are incubated with cells for 3 days.
A further assay has as its system KM20. Nature of the assay: Cell survival assay (SRB), KM20. It counts as cell-based. Particulars: 72 h. Here is the method: as §1
Another assay deals with SW620. Briefly: Cell survival assay (SRB), SW620. Particulars: Homo sapiens, SW-620, 72 h. The format is cell-based. How it is done: as §1
In a further assay the test system is KB-3-1. Nature of the assay: Cell survival assay (SRB), KB-3-1. The format is cell-based, human. The gist of the method: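 IC50 for 50% growth inhibition after 3-day compound exposure, tested in duplicate. SRB protein staining of TCA-fixed cells (10% TCA, 1 hr, 4 °C), solubilised in Tris base and read by absorbance, was used as the survival read-out, with KB-3-1 grown in 20% FCS.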

For another assay, the system named is U87. Nature of the assay: Cell survival assay (SRB), U87. Particulars: Homo sapiens, U-87 MG, 72 h. The format is cell-based. Here is the method:
as §1

A further assay deals with CCRF-CEM. Briefly: Cell survival assay (MTS), CCRF-CEM. It counts as cell-based. Particulars: Homo sapiens, 72 h. Here is the method: as §1
A further assay relates to A375. Nature of the assay: Cell survival assay (SRB), A375. The format is cell-based. Particulars: Homo sapiens, A-375, 72 h. How it is done:
as §1

For another assay, the system named is Lox. Nature of the assay: Cell survival assay (SRB), Lox. The format is cell-based. The following applies: Homo sapiens, 72 h. How it is done:
as §1

Another assay relates to NCI-H1299. Nature of the assay: Cell survival assay (SRB), NCI-H1299. The format is cell-based. Particulars: Homo sapiens. Here is the method: as §1
The next assay has as its system A498. Nature of the assay: Cell survival assay (SRB), A498. The format is cell-based. Particulars: Homo sapiens. Here is the method:
as §1

In a further assay the test system is A431. Briefly: Cell survival assay (SRB), A431. The format is cell-based. Particulars: Homo sapiens, A-431, 72 h. How it is done: as §1
In the next assay the test system is HL60/AR (MRP1). Nature of the assay: Cell survival assay, HL60/AR (MRP1). The following applies: for IC50: Homo sapiens, HL-60/AR, read-out: HL60/AR (MRP1) IC50, nM (N). The source says:
Cells lines with previously known mechanisms of resistance. […] Res. 8: 207-218,1996); KB-3-1 (parental derived from an epidermoid carcinoma), KB-8.5, KB-V1 (Akiyama S-I, Fojo A, Hanover J A, Pastan I, Gottesman M M. Isolation and genetic characterization of human KB cell lines resistant to multiple drugs. Somatic Cell Mol. Gen., 11: 117-126,1985; Shen D-W, Cardarelli C, Hwang J, Cornwell M, Richert N, Ishii S, Pastan I, Gottesman MM. […] J. Biol. Chem., 261: 7762-7770, 1986); and HL-60 (parental derived from human leukemia) and HL60/AR (McGrath T., Center M. S. Adriamycin resistance in HL60 cells in the absence of detectable P-glycoprotein. Biochem. Res. Commun., 145:1171-1176,1987); A549 and A549.EpoB40 (He L., Yang C.-P.H., Horwitz S. B. Mutations in p-tubulin map to domains involved in regulation of microtubule stability in epothilone-resistant cell lines. Molecular Cancer Therapeutics. 1: 3-10, 2001). HCT-15 human colon carcinoma and DLD-1 human colon carcinoma are obtained from American Tissue Culture Collection. The MX-1W carcinoma is a Wyeth variant orginally obtained as MX-1 breast carcinoma from the National Cancer Institute. Cell lines selected for resistance to Representative Example 129. KB-3-1 cells are selected for resistance to Example 129 by chronically exposing cells to increasing concentrations of Example 129.
2.2. Cell Survival Assay: Standard Pharmacological Test Procedure. The concentration of candidate inhibitor required to inhibit 50% of cell growth (IC50) is done according to previously reported methods. […] Compounds are serially diluted into media as 2× stocks and 100 μl added to cells in duplicate. Compounds are incubated with cells for 3 days. At the end of the incubation period the sulforhodamine B (SRB) assay, which measures protein content as an assessment of cell survival, is performed as described previously (Skehan P, Storeng R, Scudiero D, Monks A, McMahon J, Vistica D, Warren J T, Bokesch H, Kenney S, Boyd MR. New calorimetric cytotoxicity assay for anticancer-drug screening. J Natl Cancer Inst 1990 Jul 4;82(13):1107-12) with some modification as follows. For KB-3-1 cells with 20% FCS, media is gently decanted and replaced with 200 μl of serum-free media mixed with cold 50% TCA for a final concentration of 10% TCA. The plates are incubated for 1 hr at 4° C., followed by washing 5 times in cold distilled water, then air dried overnight. The fixed cells are stained for 10 min with 80 μl of 0.04% SRB solution prepared in 1% glacial acetic acid. Stain is discarded and plates washed 5 times in 1% glacial acetic acid, then air-dried until completely dry. Stained cell product is dissolved in 150 μl of 10 mM Trizma Base and placed on a shaker for 20 minutes until fully dissolved. Absorbance is read on a Victor V multi-label plate reader (Perkin Elmer, Gaithersburg, Md.).
J. Cell Science,113: 2011-2021, 2000). It was unknown whether the hemiasterlin family of peptides interact with these drug pumps.

The next assay deals with DLD-1 tumor. Nature of the assay: Growth of tumors in nude mice, DLD-1 xenograft. The format is in vivo. Particulars: days 1,5,9. The source says: (§2) 2.4. Growth of Tumors in Nude Mice.
In assay [1] the test system is human carcinoma xenografts. Nature of the assay: Growth of tumors in nude mice, several xenograft models and tolerated dose. It counts as in vivo.
Description: as §2

Read-outs that look alike come from different tables or passages of the source. Marks after values point to notes of the source that are not given here.

`CC(=O)O[C@H]1C(=O)[C@@]2(C)[C@H]([C@H](OC(=O)c3ccccc3)[C@]3(O)C[C@H](OC(=O)[C@H](O)[C@@H](NC(=O)c4ccccc4)c4ccccc4)C(C)=C1C3(C)C)[C@]1(OC(C)=O)CO[C@@H]1C[C@@H]2O` [paclitaxel, reference compound]: the IC50 with Colo205 (Colo205, colon, 3 days, SRB staining, read-out: IC50) came out at 6.9 ± 2.3 nM; in the assay on KM20 (KM20, colon, 3 days, SRB staining, read-out: IC50), 8.9 ± 1.9 nM; in the assay on SW620 (SW620, colon, 3 days, SRB staining, read-out: IC50), 18 nM; in the assay on KB-3-1 (Homo sapiens, KB 3-1, 72 h, KB-3-1, epidermoid, 3 days, SRB staining, read-out: IC50), 3.9 ± 1.8 nM; with KB-3-1 (Homo sapiens, KB 3-1, 72 h, KB-3-1, 3 days, SRB, + 5.0 uM MDR-1 inhibitor (heptanenitrile), mean of two experiments, read-out: IC50 + 5.0 uM MDR-1 inhibitor), 2.1 nM; with KB-3-1 (Homo sapiens, KB 3-1, 72 h, KB-3-1, 3 days, SRB, vehicle (DMSO), no MDR-1 inhibitor, mean of two experiments, read-out: IC50) it was 2.2 nM. For the same compound, the IC50 with KB-3-1 (Homo sapiens, KB 3-1, 72 h, amount of drug needed to kill 50% of cells after three days continuous exposure, Table 11, read-out: IC50 in parental cell line KB-3-1) was found to be 3.9 nM; in the assay with KB-3-1 (Homo sapiens, KB 3-1, KB-3-1, Table 6, read-out: KB-3-1 IC50), 2.74 ± 0.39 nM; with KB-3-1 (Homo sapiens, KB 3-1, KB-3-1 parental, Table 3, read-out: KB-3-1 IC50, nM (N)), 3.9 ± 1.8 nM; in the assay with KB-3-1 (Homo sapiens, KB 3-1, KB-3-1 parental, Table 8, read-out: KB-3-1 IC50) it was 2.66 ± 0.92 nM; in the assay with U87 (U87, glioblastoma, 3 days, SRB staining, read-out: IC50) it was 25.1 nM; in the assay with CCRF-CEM (leukemia, 3 days, MTS assay, read-out: IC50) it was 3.3 ± 1.3 nM. The IC50 with A375 (A375, melanoma, 3 days, SRB staining, read-out: IC50) worked out at 14.1 ± 7.3 nM; in the assay on Lox (Lox, melanoma, 3 days, SRB staining, read-out: IC50) it was 17.3 ± 5.6 nM; in the assay on NCI-H1299 (72 h, NCI-H1299, NSCLC, 3 days, SRB staining, read-out: IC50), 37.7 ± 12.6 nM; in the assay with A498 (72 h, A498, renal, 3 days, SRB staining, read-out: IC50), 27.5 nM; in the assay on A431 (A431, squamous, 3 days, SRB staining, read-out: IC50) it was 7.6 nM; in the assay on HL60/AR (MRP1), 5.2 nM. In addition, the “% T/C on day 7” value in the assay with DLD-1 tumor (paclitaxel 60 mg/kg IV) worked out at 71%. Moreover, in the assay on DLD-1 tumor (paclitaxel 60 mg/kg IV), the “% T/C on day 14” value is 73%. The response of tumors entry in [1] (DLD-1, MX-1W or HCT-15 tumors, at or near the MTD) was “no response”.

As to `CN[C@H](C(=O)N[C@H](C(=O)N(C)[C@H](/C=C(\C)C(=O)O)C(C)C)C(C)(C)C)C(C)(C)c1ccccc1` [Example 129, N,β,β-trimethyl-L-phenylalanyl-N^1-[(1S,2E)-3-carboxy-1-isopropylbut-2-enyl]-N^1,3-dimethyl-L-valinamide], the IC50 is 1.5 ± 0.6 nM with Colo205; 1.8 ± 0.6 nM with KM20; 3.6 ± 0.8 nM in the assay with SW620; 1.2 nM in the assay on KB-3-1; roughly 1 nM in the assay with KB-3-1 (Homo sapiens, KB 3-1); 0.96 nM with KB-3-1 (Homo sapiens, KB 3-1, 72 h). Further, the IC50 with KB-3-1 (Homo sapiens, KB 3-1, 72 h, read-out: IC50 + 5.0 uM MDR-1 inhibitor) is 0.9 nM; with KB-3-1 (Homo sapiens, KB 3-1, 72 h, read-out: IC50 in parental cell line KB-3-1) it was 1 nM; in the assay with KB-3-1 (Homo sapiens, KB 3-1, read-out: KB-3-1 IC50 (nM)), 0.612 ± 0.023 nM; with KB-3-1 (Homo sapiens, KB 3-1, read-out: KB-3-1 IC50, nM), 0.53 ± 0.05 nM; with KB-3-1 (Homo sapiens, KB 3-1, read-out: KB-3-1 IC50, nM (N)), 0.96 nM; with U87, 2.4 ± 0.3 nM. The IC50 was 0.2 ± 0.03 nM in the assay on CCRF-CEM; 1.1 ± 0.8 nM with A375; 1.4 ± 0.6 nM in the assay with Lox (LOX); 6.8 ± 6.1 nM in the assay on NCI-H1299 (NCI-H1299, 72 h); 0.8 nM with A498 (A498, 72 h); 2.4 ± 0.4 nM with A431. Further, the IC50 in the assay on HL60/AR (MRP1) was 0.245 ± 0.45 nM. For the same compound, in the assay on HL60/AR (MRP1) (IC50 HL60/AR / IC50 HL60), the “RR, relative resistance” value was 1.2. In addition, the “% T/C on day 7” value in the assay on DLD-1 tumor (Example 129 1.6 mg/kg IV) is 22** %. Also, the “% T/C on day 14” value in the assay on DLD-1 tumor (Example 129 1.6 mg/kg IV) is given as 20** %. In the assay with DLD-1 tumor (Example 129 1.6 mg/kg IV), the “% T/C on day 21” value was 44%. Also, the “inhibition of tumor growth” value in assay [1] (tumors derived from DLD-1, MX-1W or HCT-15) is on record as 60-95%.

(Values after US20040121965A1, “Method of treating resistant tumors” (Wyeth Holdings Corporation, priority 2002, published 2004).)
